Measured values taken from publication PMC8838411, “Disrupting the MAD2L2-Rev1 Complex Enhances Cell Death upon DNA Damage” (Molecules, 2022).

Assays:
[1] = target: T1, GST-MAD2L2 (Homo sapiens, UniProt Q9UI95); test: field-effect biosensing (FEB, Agile R100), immobilised protein; assay type: binding; settings: PBS; compound 1-50 μM; Hill fit or kon/koff
T1 construct: GST fusion, expressed in E. coli BL21 Star, standard GST purification, amine-immobilised on graphene chip

[2] = target: T2, MAD2L2-Rev1 complex (myc-MAD2L2 and YFP-Rev1) (Homo sapiens, UniProt Q9UI95); test: co-immunoprecipitation (GFP-Trap), immunoblot; assay type: cell-based; settings: HEK293 cells, 50 μM compound, 24 h
T2 construct: stoichiometry from the docking model; with DNA repair protein REV1

[3] = target: T1, GST-MAD2L2; test: field-effect biosensing (FEB, Agile R100), immobilised protein; assay type: binding; settings: PBS; compound 1-50 μM; Hill fit or kon/koff; unreliable

T1 sequence (Q9UI95 whole entry, the tested form may be a part): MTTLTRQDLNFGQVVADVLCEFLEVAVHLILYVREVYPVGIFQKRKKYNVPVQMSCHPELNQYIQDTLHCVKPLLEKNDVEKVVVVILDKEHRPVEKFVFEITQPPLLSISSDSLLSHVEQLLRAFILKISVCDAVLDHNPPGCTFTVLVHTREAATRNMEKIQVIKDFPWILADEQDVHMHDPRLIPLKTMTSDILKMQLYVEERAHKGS
T2 sequence (Q9UI95 whole entry): as the sequence (Q9UI95 whole entry, the tested form may be a part) above
T2 sequence (Q9UBZ9 whole entry partner): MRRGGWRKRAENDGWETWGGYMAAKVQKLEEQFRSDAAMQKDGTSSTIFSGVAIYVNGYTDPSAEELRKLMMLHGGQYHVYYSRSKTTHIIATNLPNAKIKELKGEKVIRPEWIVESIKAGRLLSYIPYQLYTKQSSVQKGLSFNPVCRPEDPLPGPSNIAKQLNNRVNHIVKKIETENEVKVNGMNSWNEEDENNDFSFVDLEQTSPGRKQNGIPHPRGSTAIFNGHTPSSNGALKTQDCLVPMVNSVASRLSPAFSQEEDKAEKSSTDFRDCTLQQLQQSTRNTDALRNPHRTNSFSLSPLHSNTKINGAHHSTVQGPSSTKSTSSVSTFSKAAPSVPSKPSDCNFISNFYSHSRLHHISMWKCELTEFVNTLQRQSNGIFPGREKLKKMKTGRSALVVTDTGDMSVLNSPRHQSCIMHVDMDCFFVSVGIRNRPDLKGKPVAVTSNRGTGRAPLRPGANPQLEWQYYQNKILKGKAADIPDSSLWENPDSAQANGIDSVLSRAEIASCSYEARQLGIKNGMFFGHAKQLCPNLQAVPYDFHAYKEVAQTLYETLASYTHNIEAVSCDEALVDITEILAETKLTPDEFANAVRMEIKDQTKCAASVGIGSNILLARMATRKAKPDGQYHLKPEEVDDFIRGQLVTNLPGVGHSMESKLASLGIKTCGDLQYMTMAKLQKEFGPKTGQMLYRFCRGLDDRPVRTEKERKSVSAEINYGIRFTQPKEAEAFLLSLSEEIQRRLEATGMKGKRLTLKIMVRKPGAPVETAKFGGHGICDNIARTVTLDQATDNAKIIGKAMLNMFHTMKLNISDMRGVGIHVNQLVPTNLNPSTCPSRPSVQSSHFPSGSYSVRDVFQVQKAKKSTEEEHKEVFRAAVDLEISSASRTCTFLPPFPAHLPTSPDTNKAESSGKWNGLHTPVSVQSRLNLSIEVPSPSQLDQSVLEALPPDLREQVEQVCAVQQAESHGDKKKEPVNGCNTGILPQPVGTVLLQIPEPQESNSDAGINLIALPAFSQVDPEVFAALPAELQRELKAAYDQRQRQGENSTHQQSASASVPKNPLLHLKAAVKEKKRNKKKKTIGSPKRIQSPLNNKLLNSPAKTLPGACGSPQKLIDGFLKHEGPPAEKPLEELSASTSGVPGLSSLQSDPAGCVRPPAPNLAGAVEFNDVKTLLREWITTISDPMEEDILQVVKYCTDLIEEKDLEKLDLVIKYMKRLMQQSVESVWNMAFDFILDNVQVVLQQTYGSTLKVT

Row | Kd [1] | % reduction of MAD2L2-Rev1 binding at 50 μM [2] | kD [3] | Substance
1 | 44.9 ± 2.06 µM | ~ 80% | – | ZINC25496030 [c#3]
2 | – | – | 310.8 ± 32.96 µM | ZINC97017995 [c#2]
